# Results published in patent US4783462A, “3(2H)pyridazinone, and anti-allergic agent containing it” (Nissan Chemical Industries Ltd., priority 1985, dated 1988).
# Columns and labels:
# ddY strain male mice [1] = assay: Acute toxicity test, Test method-(2), intraperitoneal; assay type: in vivo; conditions: 7 days
# Experimental: The lethal ratio was determined in ddY strain male mice (4 weeks old) at 7 days after the intraperitoneal injection of test compounds.
# LTC4 [2] = assay: Antagonism in isolated guinea-pig trachea, Test method (i) (Table 3, given as LTC4 antagonism); assay type: cell-based; conditions: Cavia porcellus, 5 min, test compound 10^-5 g/ml, given as LTC4 antagonisms
# In short: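 Spiral strips of guinea-pig trachea under 1 g tension, contracted by LTC4 (2×10^-8 g/ml) after maximal histamine (10^-4 M) response. Compounds added at 10^-5 or 10^-6 g/ml final 5 min beforehand; contraction expressed as % histamine maximum and antagonism % calculated against paired untreated trachea.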
# LTC4 [3] = assay: LTC4 antagonism in isolated guinea-pig trachea, Test method (i) (Table 2); assay type: cell-based; conditions: Cavia porcellus, 5 min, read-out: Antagonism (%)
# Experimental: (§1) (i) LTC4 and LTD4 antagonisms in guinea-pig trachea
# (§2) Antagonisms for LTC4 and LTD4 were determined in isolated guinea-pig trachea prepared as spiral strip. Tracheal preparations were suspended under 1 g tension in 10 ml organ baths and they were incubated for 1 hr prior to use. Contractile responses to LTC4 (2×10^-8 g/ml) and LTD4 (2×10^-8 g/ml) were obtained after the maximal response to histamine (10^-4 M). Test compounds dissolved in 100% dimethyl sulfoxide were added to the organ baths (final concentration of 10^-5 g/ml or 10^-6 g/ml) 5 min prior to LTC4 and LTD4 addition, and then contractile responses to LTC4 and LTD4 were compared with those of control which was obtained from a paired trachea in the absence of test compounds. LTC4 - and LTD4 -induced contractions were expressed as a percentage of the maximal response to histamine. The antagonism was determined as follows:
# (§3) Antagonism (%)=(1.0-% contraction in test/% contraction in […]
# [4] = tested on: anaphylactic bronchoconstriction in passively sensitized guinea-pig; assay: Effect on anaphylactic bronchoconstriction in passively sensitized guinea-pig; assay type: in vivo; conditions: 2 mg/kg i.v.
# Experimental: (iii) Effect on anaphylactic bronchoconstriction in passively sensitized guinea-pig
# Male guinea-pigs (350-450 g) were passively sensitized with intravenous (i.v.) injection of 0.125 ml rabbit anti-EA (egg albumin) serum (Cappel Laboratories) 1 day preceding the experiment. […] Sensitized guinea-pigs were anaesthetized with intraperitoneal injection of urethane (1.5 g/kg). The right jugular vein was cannulated for the administration of the all agents and trachea was cannulated to record total pulmonary resistance. Guinea-pigs were artificially ventilated by a small animal respirator (Shinano, Model SN-480-7) set at a stroke volume of 5 ml and a rate of 50 breaths per min. […] The increase in air overflow volume was expressed as a percentage of the maximum bronchoconstriction obtained by clamping off the trachea. Following surgical preparation, the animals were pretreated with indomethacin (1.0 mg/kg, 10 min), pyrilamine (2 mg/kg, 6 min) and propranolol (0.1 mg/kg, 5 min) prior to the EA challenge (0.1 or 10 mg/kg). All test compounds, 2 mg/kg in 3% Tween 80 or 3% PEG-400, were administered 1 min before the EA challenge. Inhibition (%) of bronchoconstriction was determined as follows: Inhibition (%)=(1.0%-maximum bronchoconstriction in test/% maximum bronchoconstriction in control)×100. The maximum bronchoconstriction was obtained within 20 min after the EA challenge.
# In the Table, the dose of EA was 10 mg/kg, and each compound was dissolved or suspended in 3% Tween 80.
# The dose of EA was 0.1 mg/kg.
# LTD4 [5] = assay: LTD4 antagonism in isolated guinea-pig trachea, Test method (i) (Table 4, values with asterisk); assay type: cell-based; conditions: Cavia porcellus, 5 min, test compound 10^-6 g/ml, 5 min prior
# Experimental: as §1, §2, §3
# ddY strain male mice [6] = assay: Acute toxicity test, Test method-(1), oral; assay type: in vivo; conditions: 7 days
# Experimental: The lethal ratio was determined in ddY strain male mice (4 weeks old) at 7 days after the oral administation of test compounds.
# LTD4 [7] = assay: LTD4 antagonism in isolated guinea-pig trachea with indomethacin, Test method (ii) (Table 4); assay type: cell-based; conditions: Cavia porcellus, 0.5 h, LTD4 2×10^-8 g/ml, test compound 10^-6 g/ml, 30 min prior, 5 μmol indomethacin
# Experimental: (ii) LTD4 antagonism in guinea-pig trachea
# Antagonism for LTD4 was determined in isolated guinea-pig trachea prepared as spiral strip. Tracheal preparations were suspended under 1 g tension in 10 ml organ baths containing 5 μmol of indomethacin and they were incuated for 1 hr prior to use. Contractile responses to LTD4 (2×10^-8 g/ml) were obtained after the maximal response to histamine (10^-4 M). Test compounds dissolved in 100% dimethyl sulfoxide were added to the organ baths (final concentration of 10^-6 g/ml) 30 min prior to LTD4 addition, and then contractile responses to LTD4 were compared with those of control which was obtained from a paired trachea in the absence of test compounds. LTD4 -induced contractions were expressed as a percentage of the maximal response to histamine. The antagonism was determined as follows:
# as §3
# [8] = LTC4 2×10^-8 g/ml, test compound 10^-5 g/ml
# [9] = Table 5-(1), EA 10 mg/kg, 3% Tween 80
# [10] = Table 5-(2), EA 0.1 mg/kg, PEG-400
# [11] = Table 5-(2), EA 0.1 mg/kg, Tween 80
compound,measurement,setting,value
"CCCc1cc(C(=O)OC)ccc1OCCCNc1cn[nH]c(=O)c1Cl [Compound No. 4, 4-Chloro-5-[3-(2-n-propyl-4-methoxycarbonylphenoxy)propylamino]-3(2H)pyridazinone]",Lethal ratio (Death number/Experimental number),ddY strain male mice [1]; 200 mg/kg intraperitoneal,0/2
same,Lethal ratio (Death number/Experimental number),ddY strain male mice [1]; 400 mg/kg intraperitoneal,0/1
same,inhibition at 10 µg/mL,LTC4 [2],85%
same,inhibition at 10 µg/mL,LTC4 [3]; [8],99%
same,Inhibition (%),[4]; [9],27%
"CCCc1cc(C(=O)OC)ccc1OCCCNc1cnn(CC)c(=O)c1Cl [Compound No. 6, 4-Chloro-5-[3-(2-n-propyl-4-methoxycarbonylphenoxy)propylamino]-2-ethyl-3(2H)pyridazinone]",inhibition at 1 µg/mL,LTD4 [5],78%
same,inhibition at 10 µg/mL,LTC4 [2],96%
same,Inhibition (%),[4]; [10],44%
"CCCc1cc(C(=O)O)ccc1OCCCNc1cnn(CC)c(=O)c1Cl [Compound No. 7, 4-Chloro-5-[3-(2-n-propyl-4-carboxyphenoxy)propylamino]-2-ethyl-3(2H)pyridazinone]",Lethal ratio (Death number/Experimental number),ddY strain male mice [1]; 200 mg/kg intraperitoneal,0/2
same,Lethal ratio (Death number/Experimental number),ddY strain male mice [1]; 400 mg/kg intraperitoneal,0/1
same,inhibition at 10 µg/mL,LTC4 [2],82%
same,inhibition at 10 µg/mL,LTC4 [3]; [8],95%
same,Inhibition (%),[4]; [9],31%
"CCn1ncc(NCCc2ccc(OC)cc2)c(Cl)c1=O [Compound No. 20, 4-Chloro-5-[2-(4-methoxyphenyl)ethylamino]-2-ethyl-3(2H)pyridazinone]",inhibition at 10 µg/mL,LTC4 [2],80%
same,inhibition at 10 µg/mL,LTC4 [3]; [8],73%
"CCCc1cc(OC)ccc1OCCCNc1cnn(CC)c(=O)c1Cl [Compound No. 82, 4-chloro-5-[3-(2-n-propyl-4-methoxyphenoxy)propylamino]-2-ethyl-3(2H)pyridazinone]",inhibition at 10 µg/mL,LTC4 [2],100%
same,Lethal ratio,ddY strain male mice [6]; 400 mg/kg oral,0/2
same,Lethal ratio,ddY strain male mice [6]; 800 mg/kg oral,0/2
C=CCc1cc(C#N)ccc1OCCCNc1cnn(CC)c(=O)c1Br [Compound No. 117],inhibition at 1 µg/mL,LTD4 [5],67%
same,inhibition at 10 µg/mL,LTC4 [2],98%
"CCCc1cc(C#N)ccc1OCC(CNc1cnn(C(C)C)c(=O)c1Cl)OC (centres unmarked) [Compound No. 158, 4-Chloro-5-[3-(2-n-propyl-4-cyanophenoxy)-2-methoxypropylamino]-2-i-propyl-3(2H)pyridazinone]",inhibition at 1 µg/mL,LTD4 [5],53%
same,inhibition at 10 µg/mL,LTC4 [2],93%
"CCCc1c(OCC(O)COc2ccc3c(=O)cc(C(=O)O)oc3c2CCC)ccc(C(C)=O)c1O (centres unmarked) [FPL-55712, reference compound]",inhibition at 1 µg/mL,LTD4 [5],76%
same,inhibition at 10 µg/mL,LTC4 [2],97%
same,inhibition at 1 µg/mL,LTD4 [7],94%
same,inhibition at 10 µg/mL,LTC4 [3],100%
same,Inhibition (%),[4]; [9],27%
same,Inhibition (%),[4]; [11],60%
CCCc1c(OCCCOc2cnn(C(C)(C)C)c(=O)c2Cl)ccc2c(=O)cc(C(=O)OCC)oc12 [compound 23],inhibition at 10 µg/mL,LTC4 [2],31%
same,inhibition at 10 µg/mL,LTC4 [3]; [8],27%
CCCc1c(OCCCOc2cnn(CC)c(=O)c2Cl)ccc2c(=O)cc(C(=O)OCC)oc12 [compound 25],inhibition at 10 µg/mL,LTC4 [2],24%
same,inhibition at 10 µg/mL,LTC4 [3]; [8],53%
same,Inhibition (%),[4]; [9],18%
C=CCc1cc(C#N)ccc1OCCCNc1cnn(C(C)C)c(=O)c1Cl [compound 69],inhibition at 1 µg/mL,LTD4 [5],66%
same,inhibition at 10 µg/mL,LTC4 [2],99%
same,Inhibition (%),[4]; [11],51%
Cc1ccccc1OCCCNc1cnn(C(C)C)c(=O)c1Cl [compound 72],inhibition at 10 µg/mL,LTC4 [2],85%
same,Lethal ratio,ddY strain male mice [6]; 400 mg/kg oral,0/2
C=CCc1cc(C#N)ccc1OCCCNc1cnn(CC)c(=O)c1Cl [compound 80],inhibition at 1 µg/mL,LTD4 [5],59%
same,inhibition at 10 µg/mL,LTC4 [2],98%
same,Lethal ratio,ddY strain male mice [6]; 400 mg/kg oral,0/2
same,Lethal ratio,ddY strain male mice [6]; 800 mg/kg oral,0/2
CCc1cc(C=O)ccc1OCCCNc1cnn(C(C)C)c(=O)c1Cl [compound 94],inhibition at 10 µg/mL,LTC4 [2],98%
same,Lethal ratio,ddY strain male mice [6]; 400 mg/kg oral,0/2
same,Lethal ratio,ddY strain male mice [6]; 800 mg/kg oral,0/2
CCc1cc(C(=O)OC)ccc1OCCCNc1cnn(C(C)C)c(=O)c1Cl [compound 101],inhibition at 10 µg/mL,LTC4 [2],92%
same,Inhibition (%),[4]; [10],51%
same,Lethal ratio,ddY strain male mice [6]; 400 mg/kg oral,0/2
same,Lethal ratio,ddY strain male mice [6]; 800 mg/kg oral,0/2
CCCc1cc(C#N)ccc1OCCCNc1cnn(CC)c(=O)c1Br [compound 116],inhibition at 1 µg/mL,LTD4 [5],82%
same,inhibition at 10 µg/mL,LTC4 [2],90%
CCCc1cc(C(=O)OC)ccc1OCCCNc1cnn(CC)c(=O)c1Br [compound 118],inhibition at 1 µg/mL,LTD4 [5],69%
same,inhibition at 10 µg/mL,LTC4 [2],91%
